Data set [1] concerns hrR3. Description: Virucidal assay. The format is cell-based. The following applies: overnight dialysis against serum-containing medium. The procedure:
[…] The treated virus was diluted 200-fold with serum-supplemented DMEM and assayed for infectivity approximately 1 hour later in microtiter wells seeded with Vero cells (3.5×10^4 cells/well) 1 d earlier. Forty or 100 microliter volumes of diluted virus were adsorbed for 1 or 2 h at 37° C. and lacZ^+ cells were scored 8 hours later. In some experiments, aliquots of diluted virus were first dialyzed (Spectra/Por; MWCO 12-14,000) overnight at 4° C. against a 60-fold excess volume of Hepes-buffered serum-supplemented DMEM or forced by syringe through 0.22 μm membranes (Millex-GV; Millipore) before the remaining infectious virus was assayed.

The subject of data set [2] is HSV-1 KOS virions. Description: Electron microscopy of peptide-treated virions (aggregation). As to conditions: 25 μM peptide, purified virus particles. Here is the method: Purified HSV-1 KOS virions (2.5×10^7 pfu/ml) according to Visalli et al., Virus Res. 29:167 (1993) were treated with 25 μM antiviral peptide SEQ ID NO:1 or the control peptide EBX (SEQ ID NO: 17) in 40 μl serum-free DMEM buffered with 25 mM Hepes (pH 7.4) for 5 to 60 min at 4 or 23° C. Aliquots (10 μl) were adsorbed to pioloform poly-L-lysine-coated grids for 5 min at 23° C. Grids were rinsed with PBS, stained with 2% phosphotungstic acid (PTA) in water adjusted to pH ˜6 and air dried. Alternatively, virus was pre-adsorbed to grids and treated with peptides thereafter. A total of 4×10^9 pfu/ml of purified HSV-1 KOS in 5 μl PBS was applied to the coated grids for 5 min at 23° C., and the grids were rinsed once with serum-free DMEM buffered with 25 mM Hepes (pH 7.4) and treated with 15 μl of 5 mM EB or EBX in the same medium for 30 min at 37° C. The pH of highly concentrated solutions of antiviral peptide SEQ ID NO:1 and EBX was re-adjusted to 7.4 with NaOH prior to use. To prevent evaporation of the peptide-containing solutions, each grid was held in a Hiraoka flexible staining plate and covered with miniature bell jar made from an 0.5 ml polypropylene micro-centrifuge tubes, small enough for the 15 μl to fill half of the bell jar facing the coated surface of the grid. The entire assembly was then incubated in a moist chamber for 30 min at 37° C. […]

The test system of data set [3] is hrR3. Description: LacZ+ virus (hrR3) entry assay. The format is cell-based. Here is the method:
Confluent Vero cell cultures in 96-well microtiter plates were switched to Hepes-buffered serum-free DMEM, cooled on ice to 4° C. for 30 min, and infected with hrR3 for 1 hour at 4° C. in 40 μl of medium. Unattached virus was removed by rinsing with ice-cold medium. Treatments with antiviral peptide SEQ ID NO:1, referred to as EB, or a control peptide which comprised the RRKK tetra-peptide (SEQ ID NO:16) attached to a scrambled version of the membrane transiting peptide RRKKLAALPLVLAAPLAVLA (SEQ ID NO:17) (referred to as EBX), or mock-treatments with peptide-free medium were carried out in serum-free DMEM as indicated. Virus entry was initiated by transferring cultures to 37° C. To inactivate any remaining extracellular virus, cultures were rinsed with PBS and exposed to low pH citrate buffer (40 mM citric acid, 10 mM KCl, 135 mM NaCl, pH 3.0, according to Highlander et al., J. Virol. 61:3356 (1987), for 1 min at 23° C. The citrate was rinsed off with PBS and cultures were maintained in serum-supplemented DMEM until they were fixed with 0.5% gluteraldehyde in 5×PBS for 30 min at 23° C., stained for β-galactosidase activity for 1 hour or overnight at 23° C. with X-gal (Fisher Biotech; BP 1615-1) in 1×PBS containing […], 1.3 mM K4Fe(CN)6, and 1.3 mM K3Fe(CN)6, and scored for the presence of blue lacZ^+ cells.
In these studies, the hrR3 virus was pre-adsorbed to cells for 1 hour at 4° C. before ice cold 25 μM EB or EBX were added in serum-free DMEM. After an additional 1 hour at 4° C., cultures were shifted to 37° C. to initiate virus entry. At 15 min intervals following the temperature shift, any virus remaining outside the cells was inactivated by washing the cultures with low pH citrate buffer. Cultures were then rinsed and returned to peptide-free serum-supplemented DMEM until they were fixed and stained for f-galactosidase 8 hours after the temperature shift.
This conclusion is strengthened by the finding that the EB-sensitive phase of infection with pre-adsorbed virus clearly precedes expression of lacZ genes in hrR3 infected cells (FIG. 7A). Again, hrR3 was pre-adsorbed to cells for 1 hour at 4° C., unattached virus was rinsed off, and cells were kept for an additional hour at 4° C. Cultures were then transferred to 23° C. for 30 min before they were switched to 37° C. The more gradual change to 37° C. allowed cell layers to remain intact through subsequent frequent medium changes. Immediately following viral adsorption, cells were treated with 50 μM EB for 1 hour periods at consecutive 1 hour intervals. Between 1 and 4 hours post-infection, virus entry was inhibited by 70-80%. […] Parallel cultures were immediately fixed after mock-treatments and stained with X-gal. In these cultures, blue (lacZ^+) cells first appeared 7 hours post-infection and their number increased nearly linearly for the next 3 hours (FIG. 7A, (∘)). By 7 hours post-infection, EB ceased to be inhibitory.

The test system of data set [4] is Vero cells. Description: Trypan-blue exclusion assay (cytotoxicity). The format is cell-based. Here is the method:
Uninfected Vero cells in serum-free or serum-supplemented DMEM where treated for 1 hour at 37° C. with antiviral peptide SEQ ID NO:1 or control peptide EBX (SEQ ID NO:17), rinsed with PBS, stained for […] at 23° C. with 0.4% trypan-blue in PBS, rinsed again with PBS and air dried.

H-RRKKAAVALLPAVLLALLAP-OH [EB]: the “reversibility of virion inactivation” value in data set [1] is “irreversibly inactivated”. In data set [2], the “state of virus particles by electron microscopy” value is on record as “nearly all of the particles were seen in relatively few large aggregates”. Moreover, in data set [3] (50 μM EB for 1 hour periods, between 1 and 4 hours post-infection (FIG. 7A)), the “inhibition of virus entry” value is listed as 70-80%. Also, in data set [3] (peptide added immediately after each citrate treatment (FIG. 6B)), the “effect on development of lacZ+ cells” value was “no longer had any effect”. Further, in data set [4], the “cytotoxic concentrations relative to antiviral concentrations” value was 100 fold.
